ChEMBL document CHEMBL1201862, “PubChem BioAssay data set” (2004)
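These data come from cells grown in 96-well plates and exposed to compound for 48 hours at five concentrations. The concentration for 50% growth inhibition is given as GI50.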 Calls of active or inactive are those of the source. Cut-off read from the data, not from the text of the source: active = GI50 up to about 1.1 µM and inactive = higher.

Legend:
Assay in all cases: NCI anticancer screen, dose series, 48 h
786-0 = tested on: 786-0
COLO 205 = tested on: COLO 205
HCC 2998 = tested on: HCC 2998
HL-60 = tested on: HL-60
LOX IMVI = tested on: LOX IMVI
NCI-H23 = tested on: NCI-H23
RPMI-8226 = tested on: RPMI-8226
SF-268 = tested on: SF-268
SK-MEL-2 = tested on: SK-MEL-2
SK-MEL-5 = tested on: SK-MEL-5
SK-OV-3 = tested on: SK-OV-3
SN12C = tested on: SN12C
SNB-75 = tested on: SNB-75
U-251 = tested on: U-251
UACC-257 = tested on: UACC-257
OVCAR-8 = tested on: OVCAR-8
SNB-19 = tested on: SNB-19
NCI-H522 = tested on: NCI-H522

SMILES	GI50 (786-0)	GI50 (COLO 205)	GI50 (HCC 2998)	GI50 (HL-60)	GI50 (LOX IMVI)	GI50 (NCI-H23)	GI50 (RPMI-8226)	GI50 (SF-268)	GI50 (SK-MEL-2)	GI50 (SK-MEL-5)	GI50 (SK-OV-3)	GI50 (SN12C)	GI50 (SNB-75)	GI50 (U-251)	GI50 (UACC-257)	GI50 (OVCAR-8)	GI50 (SNB-19)	GI50 (NCI-H522)
CCOC(=O)NC1C2CC(=O)C(O2)C1OCc1ccccc1 (stereo unspecified)	> 100 µM (inactive)	> 100 µM (inactive)	> 100 µM (inactive)	> 100 µM (inactive)	> 100 µM (inactive)	> 100 µM (inactive)	> 100 µM (inactive)	> 100 µM (inactive)	> 100 µM (inactive)	> 100 µM (inactive)	> 100 µM (inactive)	> 100 µM (inactive)	> 100 µM (inactive)	> 100 µM (inactive)	> 100 µM (inactive)			
c1nc2nc[nH]c(SSc3[nH]cnc4ncnc3-4)c-2n1		0.653 µM (active)		2.14 µM (inactive)	< 0.0441 µM (active)	0.292 µM (active)		0.897 µM (active)	8.22 µM (inactive)	4.83 µM (inactive)		12.8 µM (inactive)	0.463 µM (active)	5.68 µM (inactive)	2.63 µM (inactive)	0.455 µM (active)	47.4 µM (inactive)	
Nc1nc(=O)n(CC(O)CO)s1 (stereo unspecified)		> 100 µM (inactive)	> 100 µM (inactive)	> 100 µM (inactive)	> 100 µM (inactive)	> 100 µM (inactive)	> 100 µM (inactive)	> 100 µM (inactive)	> 100 µM (inactive)	> 100 µM (inactive)		> 100 µM (inactive)	> 100 µM (inactive)	> 100 µM (inactive)	> 100 µM (inactive)	> 100 µM (inactive)	> 100 µM (inactive)	
COC(=O)C(CC(=O)c1ccccc1)c1ccccc1NC(C)=O (stereo unspecified)	> 100 µM (inactive)	> 100 µM (inactive)	> 100 µM (inactive)	> 100 µM (inactive)	> 100 µM (inactive)	> 100 µM (inactive)	> 100 µM (inactive)	> 100 µM (inactive)		> 100 µM (inactive)	> 100 µM (inactive)	> 100 µM (inactive)	87.1 µM (inactive)	> 100 µM (inactive)	> 100 µM (inactive)	> 100 µM (inactive)	> 100 µM (inactive)	> 100 µM (inactive)
CCCC(=O)c1c(NOC2OCC(OC(C)=O)C(OC(C)=O)C2OC(C)=O)nc(OC)n(C)c1=O (stereo unspecified)	> 100 µM (inactive)	> 100 µM (inactive)	> 100 µM (inactive)	0.498 µM (active)	> 100 µM (inactive)	> 100 µM (inactive)	> 100 µM (inactive)	> 100 µM (inactive)		> 100 µM (inactive)	> 100 µM (inactive)	> 100 µM (inactive)	> 100 µM (inactive)	> 100 µM (inactive)	> 100 µM (inactive)	> 100 µM (inactive)	> 100 µM (inactive)	
O=c1cc(-c2ccccc2)[nH]c2c(Cl)cccc12	26.3 µM (inactive)	29.7 µM (inactive)	14.8 µM (inactive)	9.12 µM (inactive)	9.35 µM (inactive)	63.2 µM (inactive)	17 µM (inactive)	38.4 µM (inactive)	6.97 µM (inactive)	5.86 µM (inactive)		46.2 µM (inactive)	13.8 µM (inactive)	87.5 µM (inactive)	78.3 µM (inactive)	16.6 µM (inactive)	20.5 µM (inactive)	
COc1ccc(OC)c2c(C(=O)O)c(Cc3ccccc3)ccc12	> 100 µM (inactive)	> 100 µM (inactive)	> 100 µM (inactive)	> 100 µM (inactive)	> 100 µM (inactive)	> 100 µM (inactive)		> 100 µM (inactive)	> 100 µM (inactive)	> 100 µM (inactive)	> 100 µM (inactive)	> 100 µM (inactive)	> 100 µM (inactive)	> 100 µM (inactive)	> 100 µM (inactive)	> 100 µM (inactive)	> 100 µM (inactive)	> 100 µM (inactive)
COc1ccc(-c2cc(-c3ccccc3)c(C#N)c(=O)n2C2OC(CO)C(O)C(O)C2O)cc1 (stereo unspecified)	> 100 µM (inactive)	> 100 µM (inactive)	> 100 µM (inactive)	> 100 µM (inactive)	> 100 µM (inactive)	> 100 µM (inactive)	> 100 µM (inactive)	> 100 µM (inactive)		> 100 µM (inactive)	> 100 µM (inactive)	> 100 µM (inactive)		> 100 µM (inactive)	> 100 µM (inactive)	> 100 µM (inactive)	> 100 µM (inactive)	> 100 µM (inactive)
CCN(CC)CCC(=O)/C=C/c1ccc(C)cc1	11.9 µM (inactive)	4.72 µM (inactive)	18.6 µM (inactive)	10.8 µM (inactive)	4.53 µM (inactive)	17.1 µM (inactive)	3.99 µM (inactive)	15.8 µM (inactive)		16.6 µM (inactive)	20.7 µM (inactive)	12 µM (inactive)	15.6 µM (inactive)	10.2 µM (inactive)	13.9 µM (inactive)	13.2 µM (inactive)	19.3 µM (inactive)	
